Measurements as given in PubChem BioAssay AID248 (DTP/NCI, 2004).
Values joined by “and” are separate entries in the source; they are usually repeats but may differ in a detail not shown here. Equal values may be shown once. Inconclusive results and toxic doses are left out. Cut-off read from the data, not from the text of the source: active = T/C of 150% or more; inactive = T/C below 125%.

Tested on: L1210 leukemia ip in BDF1 mice, survival T/C
Assay: NCI In Vivo Anticancer Drug Screen. Data for tumor model L1210 Leukemia (intraperitoneal) in B6D2F1 (BDF1) mice
Details: endpoint: mean survival time, higher = longer survival
Method in brief: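 Transplantable tumor model; survival measured in treated vs vehicle control mice. Value = treated/control.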

[1] = dose: 15.0 mg/kg/injection, schedule: Q01DX Z (ip), vehicle: methylcellulose (MC)
[2] = dose: 30.0 mg/kg/injection, schedule: Q01DX Z (ip), vehicle: methylcellulose (MC)
[3] = dose: 100.0 mg/kg/injection, schedule: Q01DX001 (ip), vehicle: carboxymethylcellulose (CMC)
[4] = dose: 120.0 mg/kg/injection, schedule: Q01DX Z (ip), vehicle: methylcellulose (MC)
[5] = dose: 200.0 mg/kg/injection, schedule: Q01DX001 (ip), vehicle: carboxymethylcellulose (CMC)
[6] = dose: 100.0 mg/kg/injection, schedule: Q01DX001 (ip), vehicle: saline
[7] = dose: 200.0 mg/kg/injection, schedule: Q01DX001 (ip), vehicle: saline
[8] = dose: 400.0 mg/kg/injection, schedule: Q01DX001 (ip), vehicle: saline
[9] = dose: 10.0 mg/kg/injection, schedule: Q01DX001 (ip), vehicle: saline
[10] = dose: 20.0 mg/kg/injection, schedule: Q01DX001 (ip), vehicle: saline
[11] = dose: 100.0 mg/kg/injection, schedule: Q04DX002 (ip), vehicle: saline
[12] = dose: 200.0 mg/kg/injection, schedule: Q04DX002 (ip), vehicle: saline

Measured: T/C

CC(=N/Nc1ccccc1)/C(C)=N/Nc1ccccc1
inactive: dose: 100.0 mg/kg/injection, schedule: Q01DX001 (ip), vehicle: Klucel (hydroxypropylcellulose) (HPC) 101 % of control | dose: 100.0 mg/kg/injection, schedule: Q01DX009 (ip), vehicle: Klucel (hydroxypropylcellulose) (HPC) 88 % of control | dose: 200.0 mg/kg/injection, schedule: Q01DX001 (ip), vehicle: Klucel (hydroxypropylcellulose) (HPC) 91 % of control | dose: 200.0 mg/kg/injection, schedule: Q01DX009 (ip), vehicle: Klucel (hydroxypropylcellulose) (HPC) 95 % of control | dose: 400.0 mg/kg/injection, schedule: Q01DX001 (ip), vehicle: Klucel (hydroxypropylcellulose) (HPC) 102 % of control | dose: 400.0 mg/kg/injection, schedule: Q01DX009 (ip), vehicle: Klucel (hydroxypropylcellulose) (HPC) 98 % of control

CNC(=O)OCC1=CC(=O)C(C)=CC1=O
inactive: dose: 1.56 mg/kg/injection, schedule: Q01DX009 (ip), vehicle: gum acacia 96 % of control | dose: 3.12 mg/kg/injection, schedule: Q01DX009 (ip), vehicle: gum acacia 89 % of control | dose: 6.25 mg/kg/injection, schedule: Q01DX009 (ip), vehicle: gum acacia 89 % of control | dose: 12.5 mg/kg/injection, schedule: Q04DX003 (ip), vehicle: gum acacia 95 % of control | dose: 25.0 mg/kg/injection, schedule: Q04DX003 (ip), vehicle: gum acacia 103 % of control

O=C(/C=C/c1ccccc1)Sc1ccccc1
inactive: dose: 100.0 mg/kg/injection, schedule: Q04DX002 (ip), vehicle: Klucel (hydroxypropylcellulose) (HPC) 88 % of control | dose: 200.0 mg/kg/injection, schedule: Q04DX002 (ip), vehicle: Klucel (hydroxypropylcellulose) (HPC) 88 % of control | dose: 400.0 mg/kg/injection, schedule: Q04DX002 (ip), vehicle: Klucel (hydroxypropylcellulose) (HPC) 107 % of control

O=C(Nc1ccc(C(=O)Nc2cccc(C3=NCCN3)c2)cc1)Nc1ccc(C(=O)Nc2cccc(C3=NCCN3)c2)cc1
inactive: dose: 3.75 mg/kg/injection, schedule: Q01DX Z (ip), vehicle: methylcellulose (MC) 101 % of control | dose: 3.8 mg/kg/injection, schedule: Q01DX Z (ip), vehicle: methylcellulose (MC) 100 % of control | dose: 7.5 mg/kg/injection, schedule: Q01DX Z (ip), vehicle: methylcellulose (MC) 97 % of control | [1] 106 % of control | [2] 118 % of control and 86 % of control | dose: 50.0 mg/kg/injection, schedule: Q01DX001 (ip), vehicle: carboxymethylcellulose (CMC) 103 % of control | [3] 120 % of control | [4] 124 % of control | [5] 120 % of control | dose: 225.0 mg/kg/injection, schedule: Q01DX009 (ip), vehicle: saline with Tween-80 117 % of control | dose: 340.0 mg/kg/injection, schedule: Q01DX009 (ip), vehicle: saline with Tween-80 88 % of control | dose: 400.0 mg/kg/injection, schedule: Q01DX001 (ip), vehicle: carboxymethylcellulose (CMC) 108 % of control

O=C(O)CNc1cc(S(=O)(=O)O)cc2cc(S(=O)(=O)O)c(N=Nc3ccc(S(=O)(=O)O)c4ccccc34)c(O)c12
inactive: [6] 98 % of control | dose: 100.0 mg/kg/injection, schedule: Q04DX003 (ip), vehicle: saline 106 % of control | [7] 95 % of control | dose: 200.0 mg/kg/injection, schedule: Q04DX003 (ip), vehicle: saline 90 % of control | [8] 98 % of control | dose: 400.0 mg/kg/injection, schedule: Q04DX003 (ip), vehicle: saline 95 % of control

Nc1ccccc1C(=O)ONC(=O)c1ccccc1
inactive: dose: 100.0 mg/kg/injection, schedule: Q04DX003 (ip), vehicle: carboxymethylcellulose (CMC) 97 % of control | dose: 200.0 mg/kg/injection, schedule: Q04DX003 (ip), vehicle: carboxymethylcellulose (CMC) 93 % of control | dose: 400.0 mg/kg/injection, schedule: Q04DX003 (ip), vehicle: carboxymethylcellulose (CMC) 92 % of control

Brc1cccc[n+]1CCCC[n+]1ccccc1Br
inactive: dose: 2.2 mg/kg/injection, schedule: Q01DX Z (ip), vehicle: saline 96 % of control | dose: 3.3 mg/kg/injection, schedule: Q01DX Z (ip), vehicle: saline 100 % of control | dose: 5.0 mg/kg/injection, schedule: Q01DX Z (ip), vehicle: saline 87 % of control | [9] 96 % of control | [10] 93 % of control

C=CC[P+](c1ccccc1)(c1ccccc1)c1ccccc1
inactive: dose: 1.56 mg/kg/injection, schedule: Q01DX009 (ip), vehicle: Klucel (hydroxypropylcellulose) (HPC) 103 % of control | dose: 3.12 mg/kg/injection, schedule: Q01DX009 (ip), vehicle: Klucel (hydroxypropylcellulose) (HPC) 101 % of control | dose: 5.0 mg/kg/injection, schedule: Q01DX001 (ip), vehicle: saline 104 % of control | dose: 6.25 mg/kg/injection, schedule: Q01DX009 (ip), vehicle: Klucel (hydroxypropylcellulose) (HPC) 94 % of control | dose: 9.5 mg/kg/injection, schedule: Q01DX001 (ip), vehicle: other 107 % of control | [9] 98 % of control | dose: 12.5 mg/kg/injection, schedule: Q01DX009 (ip), vehicle: Klucel (hydroxypropylcellulose) (HPC) 103 % of control | dose: 19.0 mg/kg/injection, schedule: Q01DX001 (ip), vehicle: other 100 % of control | [10] 102 % of control | dose: 38.0 mg/kg/injection, schedule: Q01DX001 (ip), vehicle: other 102 % of control

Nc1c(Cl)ncnc1NC1CCC(CO)C1 (centres undefined)
inactive: [3] 103 % of control | [5] 106 % of control

O=S(=O)(O)Cc1ccc(Cl)cc1Cl
inactive: [11] 95 % of control | [12] 103 % of control | dose: 400.0 mg/kg/injection, schedule: Q04DX002 (ip), vehicle: saline 116 % of control

NCC1OC(OC2C(N)CC(N)C(OC3OC(CO)C(O)C(N)C3O)C2O)C(N)CC1O (centres undefined)
inactive: dose: 50.0 mg/kg/injection, schedule: Q04DX002 (ip), vehicle: saline 114 % of control | [11] 103 % of control | [12] 114 % of control

CCCCCCOC(=O)C(C)OC(=O)OCCOCCOC(=O)OC(C)C(=O)OCCCCCC (centres undefined)
inactive: [6] 100 % of control | [7] 96 % of control | [8] 100 % of control

O=C(Nc1ccc(C(=O)Nc2ccc(C3=NCCN3)cc2)cc1)Nc1ccc(C(=O)Nc2ccc(C3=NCCN3)cc2)cc1
inactive: [1] 102 % of control | [2] 103 % of control | dose: 60.0 mg/kg/injection, schedule: Q01DX Z (ip), vehicle: methylcellulose (MC) 101 % of control | dose: 62.0 mg/kg/injection, schedule: Q01DX Z (ip), vehicle: carboxymethylcellulose (CMC) 91 % of control | [4] 103 % of control | dose: 125.0 mg/kg/injection, schedule: Q01DX Z (ip), vehicle: carboxymethylcellulose (CMC) 91 % of control | dose: 250.0 mg/kg/injection, schedule: Q01DX Z (ip), vehicle: carboxymethylcellulose (CMC) 96 % of control

NC(=S)NN=C1CCCC1
inactive: dose: 6.25 mg/kg/injection, schedule: Q04DX003 (ip), vehicle: saline 96 % of control | dose: 12.5 mg/kg/injection, schedule: Q04DX003 (ip), vehicle: saline 94 % of control | dose: 25.0 mg/kg/injection, schedule: Q04DX003 (ip), vehicle: saline 94 % of control

O=[N+]([O-])c1ccc(N=C(Cl)c2cc(N3CCOCC3)ccn2)cc1
inactive: [6] 94 % of control | [7] 94 % of control | [8] 95 % of control
